{
  "source": "paper PMC3578829",
  "about": "“A Small Molecule (Pluripotin) as a Tool for Studying Cancer Stem Cell Biology: Proof of Concept” (PLoS ONE, 2013)",
  "format_in_all_cases": "cell-based",
  "key": {"[1]": {"system": "COLO 205", "assay": "FACS analysis of putative CSC surface markers", "details": "five days of SC-1 treatment", "excerpt": "(§1) A BD FACsAria (BD Biosciences, San Jose, CA) was utilized for FACS analysis according to standard procedures. The instrument was equipped with a 488 nm 100 mW blue laser, a 638 nm 30 mW red laser, and a 405 nm 50 mW violet laser. The software package Diva 5.0 (BD Biosciences) was used for collection and analysis of data. The alignment of the three lasers in the flow cell was verified prior to running tumor cell samples by running Rainbow Beads (Spherotech). The six colors being used in the analysis were then compensated to account for spectral overlap emitted by the fluorochromes within each laser as well as across the lasers using a semi-automated process. […] The data was then run through the Diva software compensation matrices and the amount of “spectral bleed” from other fluorochromes into the fluorochrome of interest’s channel was determined and automatically compensated.\n(§2) Treated and untreated cells (1×10^6 cells/condition) were harvested with trypsin EDTA (Invitrogen), washed, and then labeled with a six antibody cocktail (antibodies against the following epitopes: CD44, CD24, CD133, CD326, CD166, and P-glycoprotein in PBS without calcium and magnesium supplemented with 2% FBS) or appropriate isotype control antibodies. […] The specific amounts needed for each labeled antibody were determined through titration studies. […]"}, "[2]": {"system": "OCT4", "assay": "Immunoblotting of OCT4 in remaining colon tumor lines", "details": "0.1 µM SC-1", "description": "Standard protein electrophoretic techniques were followed using previously published protocols. For these studies, the colon lines were cultured for 5 days with and without treatments, harvested with trypsin (0.25% trypsin 0.5 mM EDTA, Invitrogen), counted and lysed with a whole cell lysis buffer (10 mM Tris, 1.0 mM EDTA, 50 mM NaCl, 0.5% deoxycholate, 0.5% NP-40, 0.5% SDS, 1.0 mM PMSF, and aprotonin and a cocktail of phosphatase and protease inhibitors). The whole cell lysate was heated to 100°C for 10 min and then fractionated (1000 g, 10 min, 4°C). Protein concentrations were measured with the Pierce BCA Protein Assay. Twenty to 40 µg of protein lysate per lane were loaded onto 10% SDS polyacrylamide gels (Ready-Gels, Biorad) with Laemmli buffer. For immunoblotting, the primary antibodies were diluted in Tween/Tris wash buffer (0.1 mM Tris-HCl pH 7.5, 2.5% Tween-20, 150 mM NaCl) and 5% BSA or nonfat dry milk and incubated overnight at 4°C. Visualization of specific bands was accomplished with an alkaline phosphatase-labeled secondary anti-immunoglobulin antibody and the ECF Chemifluorescent reagent (GE Amersham). Pixel intensity of the imaged bands was measured using STORM (GE Amersham) and Image Quant Software. Normalization for loading was accomplished by reprobing with an anti-actin antibody, quantification of pixel intensity and data normalization."}, "[3]": {"system": "colon tumor lines", "assay": "FACS analysis of CD326 and CD166, all tumor lines", "details": "any of the tumor lines; five days of SC-1 treatment", "excerpt": "as §1, §2"}, "[4]": {"system": "HT29", "assay": "Sphere formation assay (5% FBS)", "set-up": "key: Y indicates the presence of spheres following SC-1 treatment", "description": "(§3) The 7 colon tumor lines were seeded in […] tissue culture treated dishes (Falcon) at low density (62,500 cells/ml) in complete media containing 5% FBS one day prior to addition of 0.1 µM SC-1 (final cell concentration 31,250 cells/ml). Photomicrographs were prepared on day 1 and day 5 following compound treatment utilizing a Zeiss XM inverted microscope and CCD cooled-camera imaging system. Nonadherent spheres were defined as floating, circular structures with well defined borders. Occasionally, exceptionally large spheres re-adhered to the tissue culture surface. Aggregates of floating cells or grape-like clusters were not considered spheres."}, "[5]": {"system": "HCT-116", "assay": "Sphere formation assay (5% FBS)", "set-up": "key: Y indicates the presence of spheres following SC-1 treatment", "description": "as §3"}, "[6]": {"system": "COLO 205", "assay": "Sphere formation assay (5% FBS)", "set-up": "key: Y indicates the presence of spheres following SC-1 treatment", "description": "as §3"}},
  "data": [
    {"smiles": "Cc1cc(Nc2ncc3c(n2)N(C)C(=O)N(c2cc(NC(=O)c4cccc(C(F)(F)F)c4)ccc2C)C3)n(C)n1", "note": "[SC-1]", "values": [
      {"measurement": "Expression of the putative CSC markers", "setting": "[1]", "value": "No increased expression"},
      {"measurement": "OCT4 protein expression", "setting": "[2]", "value": "unchanged or decreased"},
      {"measurement": "CD326 and CD166 surface expression", "setting": "[3]", "value": "No changes"},
      {"measurement": "Sphere formation", "setting": "[4]; 0.1 µM SC-1, 5% FBS, 24 hrs", "value": "uniform nonadherent spheres with well-defined borders formed"},
      {"measurement": "Sphere formation", "setting": "[4]; summary of SC-1 effects", "value": "Y"},
      {"measurement": "Sphere formation", "setting": "[5]; 0.1 µM SC-1, 5% FBS, 24 hrs", "value": "uniform nonadherent spheres with well-defined borders formed"},
      {"measurement": "Sphere formation", "setting": "[5]; summary of SC-1 effects", "value": "Y"},
      {"measurement": "Sphere formation", "setting": "[6]; 0.1 µM SC-1, 5% FBS", "value": "sphere formation occurred in a fraction"},
      {"measurement": "Sphere formation", "setting": "[6]; summary of SC-1 effects", "value": "Y"}
    ]}
  ]
}
